Results published in the supplement of paper PMC11061612.

Assays:
AZD5991 = compound: Cc1c2c(nn1C)CSCc1cc(n(C)n1)CSc1cc(c3ccccc3c1)OCCCc1c(C(=O)O)n(C)c3c-2c(Cl)ccc13 [AZD5991]; details: max 1 µM
In short: (§1)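 Cancer cell lines were plated in 1536-well plates in 7.5 μl of DMEM/F12 or RPMI with 10% FBS and kept 24 hours at 37°C and 5% CO2 before 72 hours of dosing, with final DMSO typically 0.2%. CellTiter-Glo 2.0 luminescence measured viability, scaled between blank-well and DMSO-well means. Dose responses were fitted to a two-parameter logistic curve with a non-linear mixed effects model. This fit gives the single-agent IC50.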

Alisertib = compound: COc1cc(Nc2ncc3c(n2)-c2ccc(Cl)cc2C(c2c(F)cccc2OC)=NC3)ccc1C(=O)O [Alisertib]; details: max 10 µM
In short: as §1

Taselisib = compound: Cc1nc(-c2cn3c(n2)-c2ccc(-c4cnn(C(C)(C)C(N)=O)c4)cc2OCC3)n(C(C)C)n1 [Taselisib]; details: max 10 µM
In short: as §1

AZD1390 = compound: CC(C)n1c(=O)n(C)c2cnc3cc(F)c(-c4ccc(OCCCN5CCCCC5)nc4)cc3c21 [AZD1390]; details: max 0.3 µM
In short: as §1

Prexasertib = compound: COc1cccc(OCCCN)c1-c1cc(Nc2cnc(C#N)cn2)n[nH]1 [Prexasertib]; details: max 1 µM
In short: as §1

AZD8186 = compound: C[C@@H](Nc1cc(F)cc(F)c1)c1cc(C(=O)N(C)C)cc2c(=O)cc(N3CCOCC3)oc12 [AZD8186]; details: max 10 µM
In short: as §1

Carboplatin = compound: C1CC(C1)(C(=O)[O-])C(=O)[O-].N.N.[Pt+2] [Carboplatin]; details: max 10 µM
In short: as §1

Venetoclax = compound: CC1(C)CCC(CN2CCN(c3ccc(C(=O)NS(=O)(=O)c4ccc(NCC5CCOCC5)c([N+](=O)[O-])c4)c(Oc4cnc5[nH]ccc5c4)c3)CC2)=C(c2ccc(Cl)cc2)C1 [Venetoclax]; details: max 1 µM
In short: as §1

Trametinib = compound: CC(=O)Nc1cccc(-n2c(=O)n(C3CC3)c(=O)c3c(Nc4ccc(I)cc4F)n(C)c(=O)c(C)c32)c1 [Trametinib]; details: max 1 µM
In short: as §1

AZD7648 = compound: Cc1cc2ncnn2cc1Nc1ncc2c(n1)n(C1CCOCC1)c(=O)n2C [AZD7648]; details: max 10 µM
In short: as §1

5-Fluorouracil = compound: O=c1[nH]cc(F)c(=O)[nH]1 [5-Fluorouracil]; details: max 20 µM
In short: as §1

[1] = compound: O=C(Nc1ccc2[nH]nc(-c3ccncc3)c2c1)[C@@H]1CCN(CC(=O)N2CCN(c3ccc(-c4ncccn4)cc3)CC2)C1; details: max 5 µM
In short: as §1

Gefitinib = compound: COc1cc2ncnc(Nc3ccc(F)c(Cl)c3)c2cc1OCCCN1CCOCC1 [Gefitinib]; details: max 10 µM
In short: as §1

Etoposide = compound: COc1cc([C@@H]2c3cc4c(cc3[C@@H](O[C@@H]3O[C@@H]5CO[C@@H](C)O[C@H]5[C@H](O)[C@H]3O)[C@H]3COC(=O)[C@H]23)OCO4)cc(OC)c1O [Etoposide]; details: max 10 µM
In short: as §1

MK-2206 = compound: NC1(c2ccc(-c3nc4ccn5c(=O)[nH]nc5c4cc3-c3ccccc3)cc2)CCC1 [MK-2206]; details: max 10 µM
In short: as §1

Crizotinib = compound: C[C@@H](Oc1cc(-c2cnn(C3CCNCC3)c2)cnc1N)c1c(Cl)ccc(F)c1Cl [Crizotinib]; details: max 10 µM
In short: as §1

AZD1775 = compound: C=CCn1c(=O)c2cnc(Nc3ccc(N4CCN(C)CC4)cc3)nc2n1-c1cccc(C(C)(C)O)n1 [AZD1775]; details: max 3 µM
In short: as §1

Savolitinib = compound: C[C@@H](c1ccc2nccn2c1)n1nnc2ncc(-c3cnn(C)c3)nc21 [Savolitinib]; details: max 1 µM
In short: as §1

AZD5153 = compound: COc1nnc2ccc(N3CCC(c4ccc(OCCN5CCN(C)C(=O)[C@H]5C)cc4)CC3)nn12 [AZD5153]; details: max 1 µM
In short: as §1

Selumetinib = compound: Cn1cnc2c(F)c(Nc3ccc(Br)cc3Cl)c(C(=O)NOCCO)cc21 [Selumetinib]; details: max 10 µM
In short: as §1

Olaparib = compound: O=C(c1cc(Cc2n[nH]c(=O)c3ccccc23)ccc1F)N1CCN(C(=O)C2CC2)CC1 [Olaparib]; details: max 10 µM
In short: as §1

AZD4320 = compound: CN(CC[C@H](CSC1=CC=CC=C1)NC2=C(C=C(C=C2)S(=O)(=O)NC(=O)C3=CC=C(C=C3)N4CCC(CC4)[C@H](C5=CC=CC=C5C6=CC=C(C=C6)Cl)O)S(=O)(=O)C(F)(F)F)CCO [AZD4320]; details: max 1 µM
In short: as §1

Gemcitabine = compound: Nc1ccn([C@@H]2O[C@H](CO)[C@@H](O)C2(F)F)c(=O)n1 [Gemcitabine]; details: max 0.3 µM
In short: as §1

AZD6738 = compound: C[C@@H]1COCCN1C2=NC(=NC(=C2)C3(CC3)[S@](=N)(=O)C)C4=C5C=CNC5=NC=C4 [AZD6738]; details: max 10 µM
In short: as §1

AZD5363 = compound: C1CN(CCC1(C(=O)N[C@@H](CCO)C2=CC=C(C=C2)Cl)N)C3=NC=NC4=C3C=CN4 [AZD5363]; details: max 10 µM
In short: as §1

Doxorubicin = compound: COc1cccc2c1C(=O)c1c(O)c3c(c(O)c1C2=O)C[C@@](O)(C(=O)CO)C[C@@H]3O[C@H]1C[C@H](N)[C@H](O)[C@H](C)O1 [Doxorubicin]; details: max 1 µM
In short: as §1

SRA737 = compound: N#Cc1cnc(Nc2cc(NC[C@H]3CNCCO3)c(C(F)(F)F)cn2)cn1 [SRA737]; details: max 10 µM
In short: as §1

Paclitaxel = compound: CC(=O)O[C@H]1C(=O)[C@@]2(C)[C@H]([C@H](OC(=O)c3ccccc3)[C@]3(O)C[C@H](OC(=O)[C@H](O)[C@@H](NC(=O)c4ccccc4)c4ccccc4)C(C)=C1C3(C)C)[C@]1(OC(C)=O)CO[C@@H]1C[C@@H]2O [Paclitaxel]; details: max 3 µM
In short: as §1

Lapatinib = compound: CS(=O)(=O)CCNCc1ccc(-c2ccc3ncnc(Nc4ccc(OCc5cccc(F)c5)c(Cl)c4)c3c2)o1 [Lapatinib]; details: max 10 µM
In short: as §1

AZD2811 = compound: CCN(CCO)CCCOc1ccc2c(Nc3cc(CC(=O)Nc4cccc(F)c4)[nH]n3)ncnc2c1 [AZD2811]; details: max 1 µM
In short: as §1

SN-38 = compound: CCc1c2c(nc3ccc(O)cc13)-c1cc3c(c(=O)n1C2)COC(=O)[C@]3(O)CC [SN-38]; details: max 0.3 µM
In short: as §1

AZD0156 = compound: CN(C)CCCOc1ccc(-c2ccc3ncc4c(c3c2)n(C2CCOCC2)c(=O)n4C)cn1 [AZD0156]; details: max 3 µM
In short: as §1

SG3199 = compound: CC1=CN2[C@@H](C1)C=NC3=CC(=C(C=C3C2=O)OC)OCCCCCOC4=C(C=C5C(=C4)N=C[C@@H]6CC(=CN6C5=O)C)OC [SG3199]; details: max 0.001 µM
In short: as §1

Dasatinib = compound: CC1=C(C(=CC=C1)Cl)NC(=O)C2=CN=C(S2)NC3=CC(=NC(=N3)C)N4CCN(CC4)CCO [Dasatinib]; details: max 2 µM
In short: as §1

Palbociclib = compound: CC(=O)c1c(C)c2cnc(Nc3ccc(N4CCNCC4)cn3)nc2n(C2CCCC2)c1=O [Palbociclib]; details: max 10 µM
In short: as §1

| Cell Line | IC50, cell viability 72 h (AZD5991) [µM] | IC50, cell viability 72 h (Alisertib) [µM] | IC50, cell viability 72 h (Taselisib) [µM] | IC50, cell viability 72 h (AZD1390) [µM] | IC50, cell viability 72 h (Prexasertib) [µM] | IC50, cell viability 72 h (AZD8186) [µM] | IC50, cell viability 72 h (Carboplatin) [µM] | IC50, cell viability 72 h (Venetoclax) [µM] | IC50, cell viability 72 h (Trametinib) [µM] | IC50, cell viability 72 h (AZD7648) [µM] | IC50, cell viability 72 h (5-Fluorouracil) [µM] | IC50, cell viability 72 h [1] [µM] | IC50, cell viability 72 h (Gefitinib) [µM] | IC50, cell viability 72 h (Etoposide) [µM] | IC50, cell viability 72 h (MK-2206) [µM] | IC50, cell viability 72 h (Crizotinib) [µM] | IC50, cell viability 72 h (AZD1775) [µM] | IC50, cell viability 72 h (Savolitinib) [µM] | IC50, cell viability 72 h (AZD5153) [µM] | IC50, cell viability 72 h (Selumetinib) [µM] | IC50, cell viability 72 h (Olaparib) [µM] | IC50, cell viability 72 h (AZD4320) [µM] | IC50, cell viability 72 h (Gemcitabine) [µM] | IC50, cell viability 72 h (AZD6738) [µM] | IC50, cell viability 72 h (AZD5363) [µM] | IC50, cell viability 72 h (Doxorubicin) [µM] | IC50, cell viability 72 h (SRA737) [µM] | IC50, cell viability 72 h (Paclitaxel) [µM] | IC50, cell viability 72 h (Lapatinib) [µM] | IC50, cell viability 72 h (AZD2811) [µM] | IC50, cell viability 72 h (SN-38) [µM] | IC50, cell viability 72 h (AZD0156) [µM] | IC50, cell viability 72 h (SG3199) [µM] | IC50, cell viability 72 h (Dasatinib) [µM] | IC50, cell viability 72 h (Palbociclib) [µM] |
| --- | --- | --- | --- | --- | --- | --- | --- | --- | --- | --- | --- | --- | --- | --- | --- | --- | --- | --- | --- | --- | --- | --- | --- | --- | --- | --- | --- | --- | --- | --- | --- | --- | --- | --- | --- |
| NCI-H2342 (Lung Adenocarcinoma) | > 1 | > 10 | > 10 | > 0.3 | > 1 | > 10 | > 10 | > 1 | > 1 | > 10 | > 20 | > 5 | > 10 | > 10 | > 10 | > 10 | > 3 | > 1 | > 1 | > 10 | > 10 | > 1 | > 0.3 | > 10 | > 10 | > 1 | > 10 | 0.027 | > 10 | > 1 | > 0.3 | > 3 | > 0.001 | > 2 | > 10 |
| OPM-2 (Plasma Cell Myeloma) | 0.0323 | 5.67 | 0.815 | > 0.3 | 0.0213 | > 10 | > 10 | > 1 | 0.67 | > 10 | > 20 | > 5 | > 10 | 9.35 | 4.97 | 4.23 | 0.559 | > 1 | 0.0126 | > 10 | > 10 | 0.691 | 0.098 | 3.92 | 1.12 | 0.754 | 4.98 | 0.00668 | > 10 | > 1 | 0.108 | > 3 | > 0.001 | > 2 | 8.6 |
